# Experimental data published in patent publication US20220125765A1, “PHARMACEUTICAL COMBINATIONS COMPRISING MEBENDAZOLE AND A STRONG OR MODERATE CYP1A2 INHIBITOR” (ZEPHAPHARM LTD, priority 2019, published 2022).
# Columns and labels:
# CYP2C9 = CYP2C9 (Homo sapiens, UniProt P11712); assay: Cytochrome P450 reaction phenotyping, recombinant CYP2C9 (Bactosomes)
# Method: (§1) Incubations were also performed using control Bactosomes™ (no P450 enzymes present) to reveal any non-enzymatic degradation. Control compounds known to be metabolised specifically by each P450 isoform were included. All incubations were performed singularly for each test compound.
# (§2) Incubations were also performed using control Bactosomes™ (no P450 enzymes present) to reveal any non-enzymatic degradation. Control compounds known to be metabolised specifically by each P450 isoform were included. All incubations were performed singularly for each test compound. […] The reactions were stopped by transferring an aliquot of incubate to quench solvent at the appropriate time points, in a 1:3 ratio. The termination plates were centrifuged at 3,000 rpm for 20 min at 4° C. to precipitate the protein.
# SXFO Saos-2 = assay: 2D monolayer CellTiter-Blue viability, osteosarcoma Saos-2; type: cell-based; settings: 72 h
# Method: (§3) Seventeen compounds, including mebendazole (Batch no. […] Efficacy of compounds was assessed using CellTiter-Blue® Cell Viability Assay. Anti-tumor activity is expressed as absolute and relative IC50 and IC70 values, calculated by non-linear regression analysis.
# P-gp = P-gp (Homo sapiens, UniProt P08183); assay: in vitro; settings: human
# Sequence of P-gp (P08183 whole entry): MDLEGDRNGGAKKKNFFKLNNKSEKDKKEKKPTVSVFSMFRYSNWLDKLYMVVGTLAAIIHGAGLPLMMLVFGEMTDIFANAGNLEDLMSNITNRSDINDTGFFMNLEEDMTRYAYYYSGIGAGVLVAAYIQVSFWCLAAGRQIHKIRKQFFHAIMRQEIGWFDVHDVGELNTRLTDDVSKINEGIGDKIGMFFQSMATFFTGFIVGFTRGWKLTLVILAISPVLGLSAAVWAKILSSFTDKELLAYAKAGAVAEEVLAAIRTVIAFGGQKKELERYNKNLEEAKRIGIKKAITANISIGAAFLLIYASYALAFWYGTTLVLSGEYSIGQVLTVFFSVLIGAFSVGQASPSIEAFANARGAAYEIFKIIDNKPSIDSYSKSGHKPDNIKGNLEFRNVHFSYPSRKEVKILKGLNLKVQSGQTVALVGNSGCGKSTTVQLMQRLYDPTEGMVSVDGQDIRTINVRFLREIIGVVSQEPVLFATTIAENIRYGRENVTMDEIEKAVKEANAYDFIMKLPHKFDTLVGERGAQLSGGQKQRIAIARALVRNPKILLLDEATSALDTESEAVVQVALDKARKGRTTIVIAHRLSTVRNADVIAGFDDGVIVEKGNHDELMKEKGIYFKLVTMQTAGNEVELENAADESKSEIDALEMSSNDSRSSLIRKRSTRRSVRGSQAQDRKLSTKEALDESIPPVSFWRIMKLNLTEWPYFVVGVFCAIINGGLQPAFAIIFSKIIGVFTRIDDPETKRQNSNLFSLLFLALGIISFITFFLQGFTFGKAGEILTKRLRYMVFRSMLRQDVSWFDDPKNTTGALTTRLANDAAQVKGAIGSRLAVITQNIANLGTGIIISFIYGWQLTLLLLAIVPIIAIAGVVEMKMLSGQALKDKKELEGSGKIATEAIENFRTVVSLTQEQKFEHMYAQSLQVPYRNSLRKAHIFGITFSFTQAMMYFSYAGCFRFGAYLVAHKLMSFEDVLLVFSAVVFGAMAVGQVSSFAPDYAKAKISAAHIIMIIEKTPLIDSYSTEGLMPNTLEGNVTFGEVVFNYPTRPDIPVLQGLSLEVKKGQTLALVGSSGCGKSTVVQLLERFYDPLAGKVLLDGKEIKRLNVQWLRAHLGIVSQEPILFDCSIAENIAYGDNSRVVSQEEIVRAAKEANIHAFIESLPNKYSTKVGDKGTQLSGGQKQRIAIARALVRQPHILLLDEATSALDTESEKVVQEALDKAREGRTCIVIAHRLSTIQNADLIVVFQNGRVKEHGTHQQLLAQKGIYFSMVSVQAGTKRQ
# human P-gp transporter = human P-gp transporter (Homo sapiens, UniProt P08183); assay: in vitro; settings: Caco-2
# Sequence of human P-gp transporter (P08183 whole entry): as above
# SXFS RH-41 = assay: 2D monolayer CellTiter-Blue viability, soft tissue sarcoma RH-41; type: cell-based; settings: 72 h
# Method: as §3
# CYP2C8 = target: T1, CYP2C8 (Homo sapiens, UniProt P10632); assay: Cytochrome P450 reaction phenotyping, recombinant CYP2C8 (Bactosomes)
# T1 sequence (P10632 1-490): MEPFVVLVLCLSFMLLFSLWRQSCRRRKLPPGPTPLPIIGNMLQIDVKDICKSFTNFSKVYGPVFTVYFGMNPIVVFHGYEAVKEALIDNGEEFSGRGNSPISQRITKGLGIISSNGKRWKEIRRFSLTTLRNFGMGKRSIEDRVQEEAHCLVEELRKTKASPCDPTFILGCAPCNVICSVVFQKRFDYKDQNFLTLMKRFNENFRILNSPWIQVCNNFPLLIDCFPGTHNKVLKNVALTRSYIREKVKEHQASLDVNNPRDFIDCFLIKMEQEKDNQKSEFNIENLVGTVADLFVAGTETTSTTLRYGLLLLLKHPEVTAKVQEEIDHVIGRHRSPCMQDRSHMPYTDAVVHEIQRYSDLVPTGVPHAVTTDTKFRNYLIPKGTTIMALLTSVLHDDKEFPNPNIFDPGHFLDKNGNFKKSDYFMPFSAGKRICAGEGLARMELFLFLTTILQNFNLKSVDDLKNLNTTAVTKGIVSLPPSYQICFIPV
# Method: as §1, §2
# Sequence of CYP2C9 (P11712 whole entry, canonical isoform): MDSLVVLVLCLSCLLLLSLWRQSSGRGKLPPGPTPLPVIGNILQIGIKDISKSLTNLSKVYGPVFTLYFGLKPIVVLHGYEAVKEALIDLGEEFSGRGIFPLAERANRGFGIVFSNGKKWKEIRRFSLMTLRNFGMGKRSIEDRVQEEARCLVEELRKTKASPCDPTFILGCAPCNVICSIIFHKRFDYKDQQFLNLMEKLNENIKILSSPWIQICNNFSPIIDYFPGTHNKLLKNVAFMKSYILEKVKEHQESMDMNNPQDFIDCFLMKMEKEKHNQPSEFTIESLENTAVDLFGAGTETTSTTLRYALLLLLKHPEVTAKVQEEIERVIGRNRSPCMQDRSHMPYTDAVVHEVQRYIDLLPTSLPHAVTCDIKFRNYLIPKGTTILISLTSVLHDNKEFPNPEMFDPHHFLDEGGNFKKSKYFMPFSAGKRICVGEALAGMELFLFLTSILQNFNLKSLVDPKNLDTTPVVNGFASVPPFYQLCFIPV
smiles,measurement,setting,value
"COC(=O)Nc1nc2ccc(C(=O)c3ccccc3)cc2[nH]1 [Mebendazole, methyl N-(6-benzoyl-1H-benzimidazol-2-yl)carbamate]",Compound Remaining (% of 0 min),"CYP2C9; CYP2C9, 5 μM, 0 min",100 % of 0 min
same,Compound Remaining (% of 0 min),"CYP2C9; CYP2C9, 5 μM, 5 min",108 % of 0 min
same,Compound Remaining (% of 0 min),"CYP2C9; CYP2C9, 5 μM, 15 min",108 % of 0 min
same,Compound Remaining (% of 0 min),"CYP2C9; CYP2C9, 5 μM, 30 min",109 % of 0 min
same,Compound Remaining (% of 0 min),"CYP2C9; CYP2C9, 5 μM, 45 min",105 % of 0 min
same,% compound remaining,"CYP2C9; CYP2C9, 5 μM, time not stated",> 87.5%
same,t1/2,"CYP2C9; CYP2C9, substrate 5 μM",>2.25 h
same,half-life at 5 μM,"CYP2C9; human, recombinant CYP2C9 (Bactosomes), pH 7.4",> 2.25 h
same,Test/Control (%) at Drug Concentration,"SXFO Saos-2; Saos-2, 1.0E+00 μM",19%
same,Test/Control (%) at Drug Concentration,"SXFO Saos-2; Saos-2, 1.0E+01 μM",11%
same,Test/Control (%) at Drug Concentration,"SXFO Saos-2; Saos-2, 1.0E+02 μM",6%
same,Test/Control (%) at Drug Concentration,"SXFO Saos-2; Saos-2, 1.0E−01 μM",73%
same,Test/Control (%) at Drug Concentration,"SXFO Saos-2; Saos-2, 1.0E−02 μM",74%
same,Test/Control (%) at Drug Concentration,"SXFO Saos-2; Saos-2, 3.2E+00 μM",20%
same,Test/Control (%) at Drug Concentration,"SXFO Saos-2; Saos-2, 3.2E+01 μM",12%
same,Test/Control (%) at Drug Concentration,"SXFO Saos-2; Saos-2, 3.2E−01 μM",29%
same,Test/Control (%) at Drug Concentration,"SXFO Saos-2; Saos-2, 3.2E−02 μM",73%
same,Test/Control (%) at Drug Concentration,"SXFO Saos-2; Saos-2, 3.2E−03 μM",77%
same,"efflux ratio at 120 min, 10 μM",P-gp; Caco-2,1.17
same,"Papp A→B at 120 min, 10 μM","P-gp; Caco-2, Papp Mean",25.4 ×10⁻⁶ cm/s
same,"Papp B→A at 120 min, 10 μM","P-gp; Caco-2, Papp Mean",29.8 ×10⁻⁶ cm/s
same,"Papp A→B at 120 min, 10 μM","P-gp; Caco-2, Papp Rep 1",22.4 ×10⁻⁶ cm/s
same,"Papp B→A at 120 min, 10 μM","P-gp; Caco-2, Papp Rep 1",30.2 ×10⁻⁶ cm/s
same,"Papp A→B at 120 min, 10 μM","P-gp; Caco-2, Papp Rep 2",28.5 ×10⁻⁶ cm/s
same,"Papp B→A at 120 min, 10 μM","P-gp; Caco-2, Papp Rep 2",29.4 ×10⁻⁶ cm/s
same,"recovery at 120 min, 10 µM","P-gp; Caco-2, calculated mean % recovery values (range)",55.7 to 75.1%
same,passive permeability,human P-gp transporter,high passive permeability
same,Test/Control (%) at Drug Concentration,"SXFS RH-41; RH-41, 1.0E+00 μM",5%
same,Test/Control (%) at Drug Concentration,"SXFS RH-41; RH-41, 1.0E+01 μM",6%
same,Test/Control (%) at Drug Concentration,"SXFS RH-41; RH-41, 1.0E+02 μM",1%
same,Test/Control (%) at Drug Concentration,"SXFS RH-41; RH-41, 1.0E−01 μM",81%
same,Test/Control (%) at Drug Concentration,"SXFS RH-41; RH-41, 1.0E−02 μM",105%
same,Test/Control (%) at Drug Concentration,"SXFS RH-41; RH-41, 3.2E+00 μM",5%
same,Test/Control (%) at Drug Concentration,"SXFS RH-41; RH-41, 3.2E+01 μM",4%
same,Test/Control (%) at Drug Concentration,"SXFS RH-41; RH-41, 3.2E−01 μM",17%
same,Test/Control (%) at Drug Concentration,"SXFS RH-41; RH-41, 3.2E−02 μM",93%
same,Test/Control (%) at Drug Concentration,"SXFS RH-41; RH-41, 3.2E−03 μM",95%
same,Compound Remaining (% of 0 min),"CYP2C8; CYP2C8, 5 μM, 0 min",100 % of 0 min
same,Compound Remaining (% of 0 min),"CYP2C8; CYP2C8, 5 μM, 5 min",90.6 % of 0 min
same,Compound Remaining (% of 0 min),"CYP2C8; CYP2C8, 5 μM, 15 min",93.4 % of 0 min
same,Compound Remaining (% of 0 min),"CYP2C8; CYP2C8, 5 μM, 30 min",102 % of 0 min
same,Compound Remaining (% of 0 min),"CYP2C8; CYP2C8, 5 μM, 45 min",99.1 % of 0 min
same,% compound remaining,"CYP2C8; CYP2C8, 5 μM, time not stated",> 87.5%
same,t1/2,"CYP2C8; CYP2C8, substrate 5 μM",>2.25 h
same,half-life at 5 μM,"CYP2C8; human, recombinant CYP2C8 (Bactosomes), pH 7.4",> 2.25 h
